Results from patent US6355785B1, “Guanosine-rich oligonucleotide integrase inhibitors” (Aronex Pharmaceuticals, Inc., priority 1993, dated 2002).
Entries after “also recorded” stand apart in the source; their conditions may differ. Like-named read-outs stand apart in the source and are kept apart here.

Legend:
[1] = test system: HIV-1 strain DV; assay: HIV-1 induced syncytia formation assay in SUP T1 cells; format: cell-based
[2] = test system: HIV-1; conditions: 3.0 mg/kg every other day, 14-day treatment, three patients
[3] = test system: HSV-1
[4] = test system: Tacaribe
[5] = format: in vivo, cynomolgus monkeys
Method: Dosing. Twelve experimentally naive cynomolgus monkeys were assigned to four groups of three animals each. Prior to dosing, each animal was lightly sedated with a combination of ketamine (1 0 mg/kg) and diazepam (0.5 mg/kg), and a catheter was introduced into the femoral artery for recording central arterial pressure. Monkeys were given a single intravenous infusion of 5, 20, or 50 mg AR177/kg or saline over ten minutes through a cephalic vein catheter using a Harvard infusion pump. Arterial blood samples were drawn at −10, +10, +20, +40, +60 and +120 minutes relative to the initiation of infusion into EDTA-containing tubes for hematology, complement factors, coagulation assay, serum chemistry, and plasma AR177 determination. At 24 hours post-infusion, blood was drawn via the femoral vein into EDTA-containing tubes for these same parameters. The concentration of AR177 in dosing solutions was confirmed post experiment by absorbance at 280 nm on a spectrophotometer. For the determination of AR177 by HPLC, the plasma fraction was obtained by low speed centrifugation of blood, and stored at −20° C. until used. Electrocardiograms (ECGs), central pressure, and heart rate were recorded continuously for 120 minutes following the initiation of doing. Table E-1 summarizes the study design. The animals were observed twice daily pharmacotoxic signs and general health beginning two days before dosing and for seven days following dosing. The monkeys were not necropsied at the end of the study.

[6] = Repeat-dose monkey study: coagulation parameters (aPTT); format: in vivo, cynomolgus monkeys
Method: (§1) Hematology and coagulation parameters. Hematology and coagulation parameters were determined 9-11 days prior to the start of the study, just prior to administering doses 1 (day 1) and 12 (day 23), five minutes after dosing (coagulation only), 30 minutes and 4 hours following dosing, one day after the 12th dose (day 24), and in recovery monkeys at sacrifice (day 37). The following were determined: red blood cell count and morphology, total and differential while blood cells, hemoglobin, hematocrit, prothrombin time, fibrinogen, mean cell hemoglobin, mean corpuscular volume, mean corpuscular hemoglobin concentration, platelet count, activate partial thromboplastin time, and D-dime. Hematology was determined at Sierra Nevada Laboratories (Reno, Nev.).

[7] = test system: Vero; format: cell-based
Method: (§2) Cytotoxicity Analysis. The cytotoxicity of T30177 was assayed as described above. […] The degree of cell proliferation was determined according to the manufacturer's instructions.
(§3) Cytotoxicity Assays. The cytotoxicity of T30177 was determined using several different cell lines and primary human cells as described above. The cytotoxicity profile obtained for log phase growing cells was variable depending upon the cell line used, while the slower growing PBMCs, PBLs, and macrophages all tolerated the compound at concentrations exceeding 100 μM as monitored using the trypan blue exclusion, [^3H]thymidine uptake, or [^3H]leucine uptake techniques.

[8] = test system: NIH3T3; format: cell-based
Method: as §2, §3

[9] = test system: Vesicular Stomatitis virus
[10] = target: T1, SIV integrase (Simian immunodeficiency virus, UniProt P05896); assay: SIV integrase 3′-processing assay; format: biochemical
T1 construct: Purified recombinant wild-type FIV and SIV integrases were generous gifts; purchased gift of Dr. R. Craigie (NIDDK) (not bought)
T1 sequence (P05896 1156-1448): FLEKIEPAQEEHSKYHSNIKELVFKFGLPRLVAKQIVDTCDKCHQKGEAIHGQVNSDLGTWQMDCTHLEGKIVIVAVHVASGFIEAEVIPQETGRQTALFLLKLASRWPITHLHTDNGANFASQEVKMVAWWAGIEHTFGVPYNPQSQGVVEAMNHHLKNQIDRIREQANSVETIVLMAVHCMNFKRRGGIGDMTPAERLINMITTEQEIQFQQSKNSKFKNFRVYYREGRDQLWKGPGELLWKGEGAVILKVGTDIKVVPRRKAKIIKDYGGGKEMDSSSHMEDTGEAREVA

[11] = design: species or system cynomolgus monkeys; conditions: cynomolgus monkey, in vivo
Method: as §1

[12] = target: T2, HIV-1 protease (Human immunodeficiency virus type 1 group M subtype B, UniProt P04585); assay: HIV-1 protease assay; format: biochemical; conditions: up to 10 μM
T2 construct: HIV-1 protease enzyme (Bachem) was diluted to 166 ug/mL; purchased Bachem
Method: Protease assays. HIV-1 protease enzyme (Bachem) was diluted to 166 ug/mL in 50 mM NaOAc, 5 mM DTT, 2 mM ETDA, and 10% glycerol (pH 5.0) and stored as 10 ul aliquots at −20° C. HIV protease substrate I (Molecular Probes) was diluted to a working concentration of 0.32 nmol/μL. Enzyme (20 μL), substrate (20 μL) and drug (20 μL ) were added to each well of a microtiter plate. Positive and negative controls were evaluated in parallel. Fluorescence was quantitated on a Labsystems Fluoroskan II using 355 nm for excitation and 460 nm emission wavelengths at 37° C. at time zero and at 30 minute intervals for 2 hours.

In the case of Cc1cn([C@H]2C[C@H](N=[N+]=[N-])[C@@H](CO)O2)c(=O)[nH]c1=O [AZT, 3′-azido-3′-deoxythymidine], the “reappearance of syncytium after removal of drug” value ([1]; 4 μM, removed day 4) is reported as “two days after removal”, the IC50 ([1]; Human immunodeficiency virus 1, 96 h, SUP T1, HIV-1DV, four days, read-out: IC50 Syn (syncytium inhibition)) is reported as 0.04 µM and the IC50 ([1]; Human immunodeficiency virus 1, SUP-T1, size variants of I100-15, read-out: IC50 Syn.) is reported as 0.02 µM.
For “5′-gtggtgggtgggtgggt-3′ [T30177] (GTGGTGGGTGGGTGGGT; phosphorothioate termini, further chemistry not given here) [pPT version of parent compound I100-15, 17 mer]”, the “viral load (plasma HIV-1 RNA)” value [2] was “viral load was significantly reduced”, the IC50 virus-induced cytopathogenicity ([3]; HSV-1 (KOS)) was greater than 200 µg/mL and the “MCC minimum concentration altering normal cell morphology” value ([3]; HSV-1 (KOS) assay) was 400 μg/mL. The IC50 virus-induced cytopathogenicity ([3]; HSV-1 TK (B2006)) was greater than 200 µg/mL, the “MCC minimum concentration altering normal cell morphology” value ([3]; HSV-1 TK (B2006) assay) was 400 μg/mL and the IC50 virus-induced cytopathogenicity ([3]; HSV-1 TK (VMW1837)) was greater than 200 µg/mL. The “MCC minimum concentration altering normal cell morphology” value ([3]; HSV-1 TK (VMW1837) assay) was 400 μg/mL, the IC50 virus-induced cytopathogenicity [4] was greater than 50 µg/mL and the “MCC minimum concentration altering normal cell morphology” value [4] was greater than 50 μg/mL. The “emesis during the infusion” value ([5]; 20 mg/kg) was “all of the monkeys”, the “emesis during the infusion” value ([5]; 50 mg/kg) was “two of the three animals” and the “blood pressure, heart rate, electrocardiographic activity” value ([5]; 5, 20, 50 mg/kg) was “No clearly treatment-related changes”. The mortality ([5]; up to 50 mg/kg) was “no animals died”, the “anticoagulation activity (aPTT)” value ([6]; 2.5 mg/kg) was “no anticoagulation activity” and the “mean aPTT relative to pre-dose” value ([6]; 10 mg/kg, 5 minutes post-dosing, doses 1 and 12) was “approximately twice the pre-dose value”. The “mean aPTT” value ([6]; 40 mg/kg, five minutes after dosing) was “exceeded the upper limit of the assay”, the “no effect plasma AR177 concentration versus aPTT” value ([6]; cynomolgus monkey, in vivo) was 60-100 μg AR177/mL and the “plasma AR177 concentration at doubling of aPTT” value ([6]; cynomolgus monkey, in vivo) was 100-200 μg AR177/mL. For the same compound, the “plasma AR177 concentration at tripling of aPTT” value ([6]; cynomolgus monkey, in vivo) was 220-300 μg AR177/mL.
Work on “5′-gtggtgggtgggtgggt-3′ (GTGGTGGGTGGGTGGGT; phosphorothioate termini, further chemistry not given here) [T30177, pPT version of parent compound I100-15, 17 mer]” yielded a CC50 [7] greater than 100 µM, a TC25 [7] greater than 100 µM and a TC95 [7] greater than 100 µM. The CC50 [8] was greater than 100 µM, the TC25 [8] was greater than 100 µM and the TC95 [8] was greater than 100 µM. The IC50 virus-induced cytopathogenicity ([9]; Vesicular Stomatitis virus) was greater than 200 µg/mL, the “MCC minimum concentration altering normal cell morphology” value ([9]; Vesicular Stomatitis virus assay) was 400 μg/mL and the IC50 [10] was 0.42 µM. The eosinophils [11] was “acute decrease in eosinophils”, the lymphocytes [11] was “acute and transient increase in lymphocytes” and the “inhibition of HIV-1 protease” value [12] was “No observable inhibition; also recorded: no effect on the viral enzyme was observed”.
